According to patent US20220241223A1, “USE OF DISULFIRAM OR ITS DERIVATIVES FOR THE TREATMENT OF MITOCHONDRIAL DISEASES OR DYSFUNCTION” (Universite D'angers, priority 2019, published 2022):

Tested on: SHY1 Mutation G137R (shy1) yeast strain
Test: Halo test of growth on respiratory medium
Format: cell-based, Saccharomyces cerevisiae
Settings: FIG. 1B; shy1 mutant strain; 10 and 30 nmoles on filter
Description: Each of the various Saccharomyces cerevisiae yeast strains used in examples 1 to 3 contain different specific mutations modeling human mutations resulting in mitochondrial diseases. At different extents, all these yeast strains present growth defect when grown on respiratory medium such as ethanol or glycerol at 28° C. or 36° C. (depending on the strain). […]
More precisely, 200 μL of the various yeast mutant strain grown in liquid YPD rich fermentable medium (1% Yeast Extract, 0.5% Bacto Peptone, 2% Glucose) at 0.4 OD600 were spread on agar-based solid respiratory medium: either YPG (1% Yeast Extract, 0.5% Bacto Peptone, 2% glycerol) or YPE (1% Yeast Extract, 0.5% Bacto Peptone, 2% ethanol). Small sterile filters were then placed on the agar surface and increasing concentrations of DSF were added to the filters at the indicated quantities. […]

SMILES: CCN(CC)C(=S)S.[Na+] [DEDTC, Sodium diethyldithiocarbamate]
- effect on growth defect on non-fermentable (respiratory) medium: similarly suppresses the growth defect
